Measured values reported in patent US11607406B2, “Therapeutical methods, formulations and nutraceutical formulations” (priority 2014, dated 2023).

Legend:
volunteer [1] = experiment: Side effects reported by the volunteers after taking the formulation or drug orally; type: in vivo, human
volunteer [2] = experiment: Pre ejaculation time of volunteers after taking the formulation or drug orally; type: in vivo, human; conditions: for average pre ejaculation time: 5 minutes without the drug
[3] = capsule, 60 mg only, after 3 hours, repeated experiments

CN[C@H]1CC[C@@H](c2ccc(Cl)c(Cl)c2)c2ccccc21 [sertraline]
side effects (volunteer [1]; capsule, 60 mg only): significant side effects (stomach irritation, nausea and headache)
average pre ejaculation time (volunteer [2]; 60 mg once daily for 10 days continuously): 10 min
increase in pre-ejaculation time (volunteer [2]; [3]): no significant increase

CN(C)[C@@H](CCOc1cccc2ccccc12)c1ccccc1 [dapoxetine]
side effects (volunteer [1]; capsule, 60 mg only): significant side effects (stomach irritation, nausea and headache)
average pre ejaculation time (volunteer [2]; [3]): 20 min

CNCC[C@H](Oc1cccc2ccccc12)c1cccs1 [duloxetine]
side effects (volunteer [1]; capsule, 60 mg only): significant side effects (stomach irritation, nausea and headache)
increase in pre-ejaculation time (volunteer [2]; [3]): no significant increase

Fc1ccc([C@@H]2CCNC[C@H]2COc2ccc3c(c2)OCO3)cc1 [paroxetine]
side effects (volunteer [1]; capsule, 30 mg only (paroxetine)): significant side effects (stomach irritation, nausea and headache)
average pre ejaculation time (volunteer [2]; capsule, 30 mg only, after 3 hours, repeated experiments): 8 min

COc1cc2c(cc1OC)[C@@H]1Cc3ccc(OC)c(OC)c3CN1CC2 [rotundine, L-tetrahydropalmatine]
ejaculation latency (volunteer [2]; alone, taken orally 50~200 mg 1 hr before sex): increase ejaculation latency

COc1cccc(C2(O)CCCCC2CN(C)C)c1 (centres unmarked) [Tramadol, 2-[(dimethylamino)methyl]-1-(3-methoxyphenyl)-cyclohexanol]
average pre ejaculation time (volunteer [2]; 20 mg only): 10 min

CN(C)CCC[C@@]1(c2ccc(F)cc2)OCc2cc(C#N)ccc21 [escitalopram]
side effects (volunteer [1]; 20 mg only, once orally): significant side effects
changes in pre ejaculation time (volunteer [2]; 20 mg only, once orally, after 3 hours): no significant changes

CC(C)=CCC[C@]1(C)[C@@H](CC=C(C)C)C[C@@]2(CC=C(C)C)C(=O)[C@]1(C(=O)C(C)C)C(=O)C(CC=C(C)C)=C2O [hyperforin]
side effects (volunteer [1]; 1 capsule, 30 mg only (hyperforin)): headache
average pre ejaculation time (change) (volunteer [2]; 1 capsule, 10 mg only, after 2 hours): not changed
average pre ejaculation time (volunteer [2]; 1 capsule, 30 mg only, after 2 hours, repeated tests): around 8 minutes

COc1cc(/C=C/C(=O)CC(=O)/C=C/c2ccc(O)c(OC)c2)ccc1O [curcumin, diferuloylmethane]
changes in pre ejaculation time (volunteer [2]; capsule with curcumin 500 mg, after 1 hours, 3 hours and 12 hours): no significant changes
